# ChEMBL document CHEMBL3865806, “3-Hydrazinoindolin-2-one derivatives: Chemical classification and investigation of their targets as anticancer agents” (Eur J Med Chem, 2016)
# Tests used:
# [1] = target: T1, Hepatocyte growth factor receptor (Homo sapiens, UniProt P08581); experiment: Inhibition of GST-tagged c-Met (unknown origin) assessed as phosphotyrosine levels preincubated foe 15 mins followed by addition of poly(glutamic acid-tyrosine (4:1)) as substrate and ATP by ELISA
# [2] = target: T2, Tyrosine-protein phosphatase non-receptor type 11 (Homo sapiens, UniProt Q06124)
# T2 sequence (Q06124 whole entry): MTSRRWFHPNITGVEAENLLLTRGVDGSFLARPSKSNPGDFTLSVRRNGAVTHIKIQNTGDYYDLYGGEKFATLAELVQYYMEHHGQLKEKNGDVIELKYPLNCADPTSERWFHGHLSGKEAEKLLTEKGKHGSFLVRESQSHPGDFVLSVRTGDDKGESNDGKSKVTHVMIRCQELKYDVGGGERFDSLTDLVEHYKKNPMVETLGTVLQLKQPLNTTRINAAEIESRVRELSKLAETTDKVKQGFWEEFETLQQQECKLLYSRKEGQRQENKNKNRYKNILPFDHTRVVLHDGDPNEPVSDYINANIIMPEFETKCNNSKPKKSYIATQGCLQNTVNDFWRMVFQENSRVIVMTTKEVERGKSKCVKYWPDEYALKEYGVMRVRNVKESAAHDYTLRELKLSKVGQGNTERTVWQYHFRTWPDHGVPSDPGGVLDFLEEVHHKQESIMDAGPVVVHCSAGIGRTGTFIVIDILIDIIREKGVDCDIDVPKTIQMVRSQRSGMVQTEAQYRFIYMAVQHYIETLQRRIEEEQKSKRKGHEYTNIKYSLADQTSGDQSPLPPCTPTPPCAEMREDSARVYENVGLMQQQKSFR
# Description: Inhibition of human GST-tagged Shp2 (205 to 593 residues) expressed Escherichia coli DH5alpha assessed as inhibition of PTP activity using DiFMUP as substrate measured after 30 mins by fluorescence analysis
# [3] = target: T1, Hepatocyte growth factor receptor; experiment: Inhibition of C-Met in human S114 cells assessed as inhibition of HGF-stimulated autophosphorylation preincubated for 60 mins followed by HGF-stimulation measured after 15 minsby DELFIA method; format: cell-based
# [4] = Antiproliferative activity against human MCF7 cells measured after 48 hrs by SRB assay; format: functional, cell-based; settings: MCF7, 48 h
# [5] = Cytotoxicity against human KBV1 cells expressing P-glycoprotein measured after 72 hrs by MTT assay; format: functional, cell-based; settings: KB-V1, 72 h
# [6] = Anticancer activity against human HeLa cells measured after 48 hrs by MTT assay; format: functional, cell-based
# [7] = Antiproliferative activity against human MCF7 cells measured after 48 hrs by MTT assay; format: functional, cell-based; settings: MCF7, 48 h
# [8] = Anticancer activity against human IMR32 cells measured after 48 hrs by MTT assay; format: functional, cell-based; settings: IMR-32, 48 h
# [9] = target: Glycogen synthase kinase-3 beta (Homo sapiens, UniProt P49841); experiment: Inhibition of GSK-3beta (unknown origin) assessed as inhibition of phosphorylation using Ser/Thr 9 peptide as substrate by FRET-based Z-LYTE assay
# [10] = Antiproliferative activity against mouse L1210 cells; format: functional, cell-based
# [11] = Cytotoxicity against porcine testicular cells assessed as cell death at 120 to 250 ug/ml; format: toxicity, cell-based, Sus scrofa; settings: pig
# [12] = Cytotoxicity against human HepG2 cells measured after 72 hrs by SRB assay; format: functional, cell-based; settings: HepG2, 72 h
# [13] = Cytotoxicity against human […] cells measured after 48 hrs by SRB assay; format: functional; settings: RXF 393, 48 h
# [14] = Cytotoxicity against human U251 cells measured after 48 hrs by SRB assay; format: functional; settings: U-251, 48 h
# [15] = Cytotoxicity against human UO31 cells measured after 48 hrs by SRB assay; format: functional; settings: UO-31, 48 h
# [16] = Antiproliferative activity against human K562 cells measured after 48 hrs by WST1 assay; format: functional, cell-based; settings: K562, 48 h
# [17] = Cytotoxicity against human KB-3-1 cells measured after 72 hrs by MTT assay; format: functional, cell-based; settings: KB 3-1, 72 h
# [18] = Cytotoxicity against human MOLT4 cells measured after 48 hrs by SRB assay; format: functional; settings: MOLT-4, 48 h
# [19] = Cytotoxicity against human HOP62 cells measured after 48 hrs by SRB assay; format: functional; settings: HOP-62, 48 h
# [20] = Cytotoxicity against human HL-60(TB) cells measured after 48 hrs by SRB assay; format: functional; settings: HL-60, 48 h
# HeLa = experiment: Inhibition of HDAC in human HeLa cell nuclear extract at 30 uM using Fluor de Lys as substrate measured after 10 to 15 mins by fluorimetric assay; format: cell-free
# [21] = Growth inhibition of human SR cells measured after 48 hrs by SRB assay; format: functional
# [22] = Growth inhibition of human MDA-MB-468 cells measured after 48 hrs by SRB assay; format: functional
# [23] = target: Epidermal growth factor receptor (Homo sapiens) (UniProt P00533); experiment: Inhibition of EGFR (unknown origin) at 100 uM relative to control
# [24] = Growth inhibition of human NCI-H522 cells measured after 48 hrs by SRB assay; format: functional
# T1 sequence (P08581 whole entry): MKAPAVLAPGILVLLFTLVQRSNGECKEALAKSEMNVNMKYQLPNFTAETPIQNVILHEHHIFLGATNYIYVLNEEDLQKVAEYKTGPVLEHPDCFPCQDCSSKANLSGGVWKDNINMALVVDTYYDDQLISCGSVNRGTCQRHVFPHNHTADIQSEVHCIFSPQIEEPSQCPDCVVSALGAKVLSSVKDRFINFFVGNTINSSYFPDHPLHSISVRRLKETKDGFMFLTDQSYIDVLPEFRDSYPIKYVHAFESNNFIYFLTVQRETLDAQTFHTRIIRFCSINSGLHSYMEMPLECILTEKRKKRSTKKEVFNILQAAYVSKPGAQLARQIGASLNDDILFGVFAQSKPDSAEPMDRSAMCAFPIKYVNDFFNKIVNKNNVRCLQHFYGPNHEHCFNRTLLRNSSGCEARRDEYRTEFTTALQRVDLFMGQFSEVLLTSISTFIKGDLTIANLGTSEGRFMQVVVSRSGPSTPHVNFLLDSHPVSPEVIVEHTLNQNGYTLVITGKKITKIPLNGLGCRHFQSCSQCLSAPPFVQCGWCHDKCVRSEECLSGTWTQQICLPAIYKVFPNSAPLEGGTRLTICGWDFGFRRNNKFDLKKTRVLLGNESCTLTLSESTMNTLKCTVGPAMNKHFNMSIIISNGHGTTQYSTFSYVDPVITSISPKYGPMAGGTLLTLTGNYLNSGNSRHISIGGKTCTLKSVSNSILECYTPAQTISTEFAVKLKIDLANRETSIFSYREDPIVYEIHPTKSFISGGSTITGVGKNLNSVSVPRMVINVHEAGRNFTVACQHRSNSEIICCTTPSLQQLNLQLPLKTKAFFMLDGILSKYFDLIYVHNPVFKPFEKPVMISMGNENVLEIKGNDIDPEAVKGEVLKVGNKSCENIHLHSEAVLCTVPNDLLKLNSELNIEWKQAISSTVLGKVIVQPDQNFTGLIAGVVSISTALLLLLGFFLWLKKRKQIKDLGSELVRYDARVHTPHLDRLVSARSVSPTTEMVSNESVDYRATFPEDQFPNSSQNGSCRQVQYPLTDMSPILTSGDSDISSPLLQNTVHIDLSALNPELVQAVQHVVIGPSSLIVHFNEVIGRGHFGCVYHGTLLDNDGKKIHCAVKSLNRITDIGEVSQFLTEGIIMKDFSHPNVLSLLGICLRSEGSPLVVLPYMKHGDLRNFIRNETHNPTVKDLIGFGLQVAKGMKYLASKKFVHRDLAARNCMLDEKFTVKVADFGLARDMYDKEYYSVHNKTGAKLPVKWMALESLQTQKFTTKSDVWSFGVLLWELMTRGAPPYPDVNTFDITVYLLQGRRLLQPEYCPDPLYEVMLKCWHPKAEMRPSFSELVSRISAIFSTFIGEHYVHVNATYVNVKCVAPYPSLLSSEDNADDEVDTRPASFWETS
# Sequence of Glycogen synthase kinase-3 beta (P49841 whole entry): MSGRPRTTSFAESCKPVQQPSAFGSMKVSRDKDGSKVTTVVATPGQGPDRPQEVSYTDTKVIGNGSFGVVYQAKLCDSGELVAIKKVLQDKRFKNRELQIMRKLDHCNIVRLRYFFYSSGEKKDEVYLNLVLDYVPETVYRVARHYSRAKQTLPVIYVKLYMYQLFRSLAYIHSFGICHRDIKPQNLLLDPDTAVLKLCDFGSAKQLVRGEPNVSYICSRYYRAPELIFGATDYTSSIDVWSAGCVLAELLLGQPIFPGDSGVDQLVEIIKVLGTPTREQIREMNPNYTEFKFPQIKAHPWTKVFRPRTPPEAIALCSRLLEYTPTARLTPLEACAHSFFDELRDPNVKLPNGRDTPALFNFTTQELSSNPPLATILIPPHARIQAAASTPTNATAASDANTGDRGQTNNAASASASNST
# Sequence of Epidermal growth factor receptor (Homo sapiens) (P00533 whole entry): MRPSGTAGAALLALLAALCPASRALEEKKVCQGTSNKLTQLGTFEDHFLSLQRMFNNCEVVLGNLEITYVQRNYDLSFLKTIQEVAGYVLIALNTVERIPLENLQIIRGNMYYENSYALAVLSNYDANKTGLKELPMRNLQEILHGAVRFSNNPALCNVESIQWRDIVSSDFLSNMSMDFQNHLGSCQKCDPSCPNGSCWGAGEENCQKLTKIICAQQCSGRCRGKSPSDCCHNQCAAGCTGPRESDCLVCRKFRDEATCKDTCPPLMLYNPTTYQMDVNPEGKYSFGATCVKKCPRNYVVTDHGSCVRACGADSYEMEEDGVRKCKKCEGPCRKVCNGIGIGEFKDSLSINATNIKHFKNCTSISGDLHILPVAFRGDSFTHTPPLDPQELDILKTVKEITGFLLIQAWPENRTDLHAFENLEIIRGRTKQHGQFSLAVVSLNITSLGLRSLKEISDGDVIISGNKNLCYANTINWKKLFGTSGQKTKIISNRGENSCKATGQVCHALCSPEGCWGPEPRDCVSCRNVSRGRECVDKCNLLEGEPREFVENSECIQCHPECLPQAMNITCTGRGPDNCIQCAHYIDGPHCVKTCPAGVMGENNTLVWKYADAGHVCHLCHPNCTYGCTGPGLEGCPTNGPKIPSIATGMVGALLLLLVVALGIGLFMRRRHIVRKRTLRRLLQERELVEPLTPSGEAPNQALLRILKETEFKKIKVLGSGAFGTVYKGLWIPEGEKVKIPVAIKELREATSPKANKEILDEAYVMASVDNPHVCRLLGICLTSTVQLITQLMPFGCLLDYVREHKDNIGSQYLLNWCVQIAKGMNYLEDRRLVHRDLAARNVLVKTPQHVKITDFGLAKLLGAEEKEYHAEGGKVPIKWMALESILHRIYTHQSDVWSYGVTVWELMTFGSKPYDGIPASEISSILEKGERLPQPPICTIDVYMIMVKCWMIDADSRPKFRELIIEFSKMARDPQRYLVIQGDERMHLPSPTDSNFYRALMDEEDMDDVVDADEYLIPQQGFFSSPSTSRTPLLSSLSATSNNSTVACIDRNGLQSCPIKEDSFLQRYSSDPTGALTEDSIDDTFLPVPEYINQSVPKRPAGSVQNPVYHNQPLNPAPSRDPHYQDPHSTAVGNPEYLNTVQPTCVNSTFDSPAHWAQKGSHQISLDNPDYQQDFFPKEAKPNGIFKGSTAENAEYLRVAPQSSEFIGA
smiles,measurement,setting,value
CSc1ccc(CC(=O)N/N=C2\C(=O)Nc3ccccc32)cc1,IC50,[1],> 20000 nM
O=C1Nc2ccc(S(=O)(=O)O)cc2/C1=N/Nc1ccccc1[N+](=O)[O-],IC50,[2],4990 nM
O=C(Cc1ccc2c(c1)CCO2)N/N=C1\CNc2cc(C(=O)NCCCCN3CC[C@H](O)C3)cc(Br)c21,IC50,[3],0.7 nM
Nc1c(C(=O)N/N=C2\C(=O)Nc3ccc([N+](=O)[O-])cc32)cnn1C(=O)c1ccc(-c2nc3ccccc3s2)cc1,IC50,[4],10 nM
COc1ccc(NC(=S)N/N=C2\C(=O)Nc3ccccc32)cc1,IC50,[5],3300 nM
O=C(Cc1ccc2c(c1)CCO2)N/N=C1\CNc2cc(C(=O)NCCCCN3CCC[C@H]3CO)cc(Br)c21,IC50,[3],0.5 nM
CS(=O)(=O)c1ccc(CC(=O)N/N=C2\C(=O)Nc3ccccc32)cc1,IC50,[1],> 20000 nM
O=C(N/N=C1\C(=O)Nc2ccc(Br)cc21)Nc1nc2ccccc2o1,IC50,[6],15900 nM
same,IC50,[7],17900 nM
same,IC50,[8],13700 nM
Cc1cc2c(cc1Br)NC(=O)/C2=N\NC(=O)c1ccccc1O,IC50,[9],15800 nM
O=C(Cc1ccc2c(c1)CCO2)N/N=C1\CNc2cc(C(=O)NCCN3CCOCC3)cc(Br)c21,IC50,[3],0.7 nM
Cc1ccc2c(c1)/C(=N/NC(=O)N/N=C1\C(=O)Nc3ccc(C)cc31)C(=O)N2,IC50,[10],16000 nM
CN1CCN(CC(=O)N/N=C2\C(=O)Nc3ccc4ccccc4c32)CC1,Activity,[11],100%
COc1ccc(-c2nc(N/N=C3\C(=O)Nc4ccccc43)c3ccccc3n2)cc1OC,IC50,[12],1000 to 2400 nM
O=C(Cc1ccc(O)c(Cl)c1)N/N=C1\C(=O)Nc2c(Cl)ccc(Cl)c21,IC50,[1],9 nM
O=c1[nH]cc(F)c(=O)[nH]1 [FLUOROURACIL],GI50,[13],55000 nM
same,GI50,[14],42700 nM
same,GI50,[15],6760 nM
O=C1Nc2ccc(Cl)cc2/C1=N/Nc1nc(-c2ccc3c(c2)OCO3)nc2ccccc12,IC50,[12],1000 to 2400 nM
O=C1Nc2ccc(F)cc2/C1=N/Nc1nc(-c2ccccc2)nc2ccccc12,IC50,[12],1000 to 2400 nM
Cc1nc(-c2ccccc2)ccc1C(=O)N/N=C1\C(=O)Nc2ccc(Br)cc21,IC50,[16],25000 nM
O=C(Cc1ccc(O)c(F)c1)N/N=C1\C(=O)Nc2c(Cl)ccc(Cl)c21,IC50,[1],9 nM
O=C(CSc1nc2ccccc2c(=O)n1-c1ccccc1)N/N=C1\C(=O)Nc2ccc(F)cc21,GI50,[13],1660 nM
same,GI50,[14],1700 nM
same,GI50,[15],209 nM
O=C1Nc2ccc(OC(F)(F)F)cc2/C1=N/N=C1/C(=O)N(c2ccccc2)c2ccccc21,IC50,[17],7670 nM
same,IC50,[5],4800 nM
O=C1/C(=N\NC(=S)Nc2ccccc2)c2cc([N+](=O)[O-])ccc2N1CN1CCCCC1,GI50,[18],661 nM
same,GI50,[19],< 10 nM
same,GI50,[20],501 nM
Cc1[nH]c(/C=N/N=C2\C(=O)Nc3ccc(F)cc32)c(C)c1C(=O)NCCCCCCCC(=O)NO,inhibition,HeLa,98%
O=C(CN/N=C1\C(=O)Nc2ccccc21)Nc1nc2ccc(Cl)cc2s1,growth inhibition (GI),[21],26.6%
same,growth inhibition (GI),[22],38.1%
same,inhibition,[23],36.6%
same,growth inhibition (GI),[24],27.5%
